SMILES strings stand for the structures. Converted amounts (≈) assume the structure as drawn.

The values that follow come from ChEMBL document CHEMBL3421527, “Synthesis and anti-mycobacterial activity of 2-chloronicotinaldehydes based novel 1H-1,2,3-triazolylbenzohydrazides” (Bioorg Med Chem Lett, 2015).

Data set [1] relates to Mycobacterium tuberculosis. Nature of the data set: Anti-mycobacterial activity against Mycobacterium tuberculosis H37Rv ATCC 27294 assessed as inhibition of microbial growth incubated for 5 days by MABA method. Conditions: H37Rv ATCC 27294, 120 h. In kind it is functional. (Alamar Blue is a resazurin reagent that responds to reducing activity.)
For another data set, the system named is PBMC. Put plainly: Cytotoxicity against PBMC (unknown origin) assessed as reduction in cell viability after 72 hrs by MTT assay. In kind it is cell-based. Conditions: Homo sapiens. (Formazan colour is commonly taken as a measure of viable cells.)
Data set [2] can be described thus: Selectivity index, ratio of IC50 for mouse RAW264.7 cells to MIC for Mycobacterium tuberculosis H37Rv ATCC 27294. To be noted: read-out: Selectivity Index. In kind it is toxicity.
Data set [3] can be described thus: Selectivity index, ratio of IC50 for PBMC (unknown origin) to MIC for Mycobacterium tuberculosis H37Rv ATCC 27294.
Another data set has as its system RAW264.7. Nature of the data set: Cytotoxicity against mouse RAW264.7 cells assessed as reduction in cell viability after 72 hrs by MTT assay. In kind it is cell-based. Conditions: RAW264.7, 72 h.

By MIC is commonly meant the smallest concentration in the dilution series that meets the test's criterion for growth inhibition. For `Cc1cnc(Cl)c(Cn2cc(C=O)nn2)c1`, in data set [1], the MIC was found to be 13.3 µM.

Regarding `O=Cc1cn(Cc2cc(-c3ccccc3)cnc2Cl)nn1`, the MIC in data set [1] stood at 5.2 µM.

Regarding `Cc1ccc(-c2cnc(Cl)c(Cn3cc(C=O)nn3)c2)cc1`, in data set [1], the MIC worked out at 40.1 µM.

Turning to `O=Cc1cn(Cc2cc(-c3ccc(F)cc3)cnc2Cl)nn1`, the MIC in data set [1] was 19.8 µM.

Take `Cc1cnc(N2CCOCC2)c(Cn2cc(C=O)nn2)c1`: the MIC in data set [1] is 21.8 µM.

Regarding `Cc1cnc(N2CCSCC2)c(Cn2cc(C=O)nn2)c1`, the MIC in data set [1] came out at 10.3 µM.

`O=Cc1cn(Cc2cc(-c3ccccc3)cnc2N2CCOCC2)nn1`: the MIC in data set [1] amounted to 4.5 µM.

For `O=Cc1cn(Cc2cc(-c3ccccc3)cnc2N2CCSCC2)nn1`, the MIC in data set [1] amounted to 8.6 µM.

In the case of `Cc1ccc(-c2cnc(N3CCOCC3)c(Cn3cc(C=O)nn3)c2)cc1`, the MIC in data set [1] worked out at 4.3 µM.

On to `Cc1ccc(-c2cnc(N3CCSCC3)c(Cn3cc(C=O)nn3)c2)cc1`, for which, in data set [1], the MIC was determined as 33.1 µM.

`Cc1cnc(Cl)c(Cn2cc(/C=N/NC(=O)c3ccc(F)cc3)nn2)c1`: in data set [1], the MIC was 33.6 µM.

In general, IC50 refers to the concentration at which inhibition is half-maximal. For `O=C(N/N=C/c1cn(Cc2cc(-c3ccccc3)cnc2Cl)nn1)c1ccc(F)cc1`, the MIC in data set [1] worked out at 3.6 µM. For the same compound, the IC50 came to 357 µg/mL (≈ 821 µM) in the data set on PBMC and 152 µg/mL (≈ 350 µM) in the data set with RAW264.7. Further, the selectivity ratio in data set [2] was 97. For the same compound, in data set [3], the “Selectivity Index” value was found to be 228.

Consider `Cc1ccc(-c2cnc(Cl)c(Cn3cc(/C=N/NC(=O)c4ccc(F)cc4)nn3)c2)cc1`, for which the MIC in data set [1] is 27.9 µM.

Take `O=C(N/N=C/c1cn(Cc2cc(-c3ccc(F)cc3)cnc2Cl)nn1)c1ccc(F)cc1`: the MIC in data set [1] is 13.8 µM.

Regarding `Cc1cnc(Cl)c(Cn2cc(/C=N/NC(=O)c3ccc(C(F)(F)F)cc3)nn2)c1`, the MIC in data set [1] stood at 3.7 µM. Moreover, the values for the IC50 with PBMC and with RAW264.7 were 337 µg/mL (≈ 797 µM) and 258 µg/mL (≈ 610 µM), respectively. Further, the selectivity ratio in data set [2] was 165. In data set [3], the “Selectivity Index” value is 216.

Consider `O=C(N/N=C/c1cn(Cc2cc(-c3ccccc3)cnc2Cl)nn1)c1ccc(C(F)(F)F)cc1`, for which, in data set [1], the minimum inhibitory concentration (MIC) was 3.2 µM. Besides, the 50% inhibitory concentration (IC50) in the data set on PBMC stood at 282 µg/mL (≈ 582 µM); in the data set on RAW264.7 it was 313 µg/mL (≈ 646 µM). Besides, the selectivity ratio in data set [2] amounted to 200. In data set [3], the “Selectivity Index” value was found to be 180.

`Cc1ccc(-c2cnc(Cl)c(Cn3cc(/C=N/NC(=O)c4ccc(C(F)(F)F)cc4)nn3)c2)cc1`: the MIC in data set [1] came out at 50.2 µM.

`O=C(N/N=C/c1cn(Cc2cc(-c3ccc(F)cc3)cnc2Cl)nn1)c1ccc(C(F)(F)F)cc1`: the minimal inhibitory concentration (MIC) in data set [1] stood at 12.5 µM.

For the compound `Cc1cnc(N2CCOCC2)c(Cn2cc(/C=N/NC(=O)c3ccc(F)cc3)nn2)c1`, the MIC in data set [1] amounted to 59.1 µM.

`Cc1cnc(N2CCSCC2)c(Cn2cc(/C=N/NC(=O)c3ccc(F)cc3)nn2)c1`: the MIC in data set [1] came out at 28.5 µM.

As for `O=C(N/N=C/c1cn(Cc2cc(-c3ccccc3)cnc2N2CCOCC2)nn1)c1ccc(F)cc1`, the MIC in data set [1] stood at 12.9 µM.

Take `O=C(N/N=C/c1cn(Cc2cc(-c3ccccc3)cnc2N2CCSCC2)nn1)c1ccc(F)cc1`: the MIC in data set [1] came out at 6.2 µM. In addition, the IC50 in the data set with PBMC was > 400 µg/mL; in the data set with RAW264.7, 188 µg/mL (≈ 375 µM). Further, the selectivity ratio in data set [2] turned out to be 60. In addition, the “Selectivity Index” value in data set [3] is listed as >128.

In the case of `Cc1ccc(-c2cnc(N3CCOCC3)c(Cn3cc(/C=N/NC(=O)c4ccc(F)cc4)nn3)c2)cc1`, in data set [1], the MIC was determined as 100 µM.

Consider `Cc1ccc(-c2cnc(N3CCSCC3)c(Cn3cc(/C=N/NC(=O)c4ccc(F)cc4)nn3)c2)cc1`, for which the MIC in data set [1] is 97.1 µM.

Take `Cc1cnc(N2CCOCC2)c(Cn2cc(/C=N/NC(=O)c3ccc(C(F)(F)F)cc3)nn2)c1`: the MIC in data set [1] is 26.4 µM.

For the compound `Cc1cnc(N2CCSCC2)c(Cn2cc(/C=N/NC(=O)c3ccc(C(F)(F)F)cc3)nn2)c1`, in data set [1], the MIC was 3.2 µM. The half-inhibitory concentration (IC50) in the data set on PBMC turned out to be 350 µg/mL (≈ 715 µM); in the data set with RAW264.7, 212 µg/mL (≈ 433 µM). In addition, in data set [2], the selectivity ratio is 136. Also, the “Selectivity Index” value in data set [3] was found to be 224.

For the compound `O=C(N/N=C/c1cn(Cc2cc(-c3ccccc3)cnc2N2CCOCC2)nn1)c1ccc(C(F)(F)F)cc1`, the minimal inhibitory concentration (MIC) in data set [1] was found to be 23.3 µM.

`O=C(N/N=C/c1cn(Cc2cc(-c3ccccc3)cnc2N2CCSCC2)nn1)c1ccc(C(F)(F)F)cc1`: in data set [1], the MIC worked out at 2.8 µM. Besides, the IC50 came out at 188 µg/mL (≈ 341 µM) in the data set on PBMC and 296 µg/mL (≈ 537 µM) in the data set on RAW264.7. For the same compound, the selectivity ratio in data set [2] stood at 189. The “Selectivity Index” value in data set [3] is 120.

As to `Cc1ccc(-c2cnc(N3CCOCC3)c(Cn3cc(/C=N/NC(=O)c4ccc(C(F)(F)F)cc4)nn3)c2)cc1`, the MIC in data set [1] was 91.1 µM.

For `Cc1ccc(-c2cnc(N3CCSCC3)c(Cn3cc(/C=N/NC(=O)c4ccc(C(F)(F)F)cc4)nn3)c2)cc1`, in data set [1], the MIC was 5.4 µM. Besides, the IC50 is > 400 µg/mL in the data set on PBMC and 326 µg/mL (≈ 576 µM) with RAW264.7. Further, the selectivity ratio in data set [2] turned out to be 104. For the same compound, the “Selectivity Index” value in data set [3] was >128.

Consider `O=C(O)c1cn(C2CC2)c2cc(N3CCNCC3)c(F)cc2c1=O` [CIPROFLOXACIN], for which the MIC in data set [1] was 12.6 µM.

`CC[C@@H](CO)NCCN[C@@H](CC)CO` [ETHAMBUTOL]: the MIC in data set [1] is 15.3 µM.

As for `NNC(=O)c1ccncc1` [ISONIAZID], the MIC in data set [1] worked out at 2.6 µM. For the same compound, the half-inhibitory concentration (IC50) is 169 µg/mL (≈ 1230 µM) with PBMC and > 400 µg/mL with RAW264.7.
